{"source": "patent US6586413B2", "about": "“Methods and compositions for reducing ischemic injury of the heart by administering adenosine receptor agonists and antagonists” (The United States of America as represented by the …, priority 1999, dated 2003)", "key": {"A3 receptor": {"target": "A3 receptor", "conditions": "cited from earlier work"}, "A1 receptor": {"target": "T1, A1 receptor (Rattus norvegicus, UniProt P25099)", "T1 sequence (P25099 1-326)": "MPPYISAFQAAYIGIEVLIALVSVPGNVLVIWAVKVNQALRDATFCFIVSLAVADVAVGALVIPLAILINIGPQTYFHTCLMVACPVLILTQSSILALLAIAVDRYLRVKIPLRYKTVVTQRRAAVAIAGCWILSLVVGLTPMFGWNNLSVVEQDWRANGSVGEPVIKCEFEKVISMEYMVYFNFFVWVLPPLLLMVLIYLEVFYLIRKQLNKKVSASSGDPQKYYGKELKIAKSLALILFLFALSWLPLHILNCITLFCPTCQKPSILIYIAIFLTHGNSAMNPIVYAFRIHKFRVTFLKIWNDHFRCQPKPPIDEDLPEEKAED", "conditions": "Table II; cited from earlier work"}, "A2a receptor": {"target": "A2a receptor (Rattus norvegicus, UniProt P30543)", "sequence (P30543 whole entry)": "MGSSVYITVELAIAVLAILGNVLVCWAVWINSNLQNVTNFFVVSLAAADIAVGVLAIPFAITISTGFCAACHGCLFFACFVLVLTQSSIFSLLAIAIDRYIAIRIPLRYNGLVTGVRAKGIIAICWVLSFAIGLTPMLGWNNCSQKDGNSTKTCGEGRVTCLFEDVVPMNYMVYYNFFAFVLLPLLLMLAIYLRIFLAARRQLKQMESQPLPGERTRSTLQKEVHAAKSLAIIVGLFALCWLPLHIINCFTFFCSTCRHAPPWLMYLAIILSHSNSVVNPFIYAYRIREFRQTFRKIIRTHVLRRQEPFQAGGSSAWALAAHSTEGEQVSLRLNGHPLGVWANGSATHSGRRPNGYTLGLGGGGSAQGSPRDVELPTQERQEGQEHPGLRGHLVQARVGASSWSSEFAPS", "conditions": "Table II; cited from earlier work"}, "[1]": {"system": "cardiac ventricular myocytes cultured from chick embryos", "assay": "Hypoxia-induced myocyte injury, agent present during prolonged (90 min) hypoxia with glucose deprivation", "format": "cell-based", "conditions": "agonist present during prolonged hypoxia/simulated ischemia", "experimental": "Ventricular cells were cultured from chick embryos 14 days in ovo as previously described (16, 23). Cells were cultivated in a humidified 5% CO2-95% air mixture at 37° C. […] The medium was changed to a HEPES-buffered medium containing (mM) 139 NaCl, 4.7 KCl, 0.5 MgCl2, 0.9 CaCl2, 5 HEPES (N-2-hydroxyethylpiperazine-N′-2-ethanesulfonic acid) and 2% fetal bovine serum, pH 7.4, 37° C. before exposing the myocytes to the various conditions at 37° C. Control myocytes were maintained in the HEPES-buffered media under room air. Ninety-minute exposure of the myocytes to hypoxia with glucose deprivation was used to induce cell injury. Hypoxia was produced by placing the cells in a hypoxic incubator (NuAire) where O2 was replaced by N2 as previously described (16,23). Effects of adenosine receptor agonists and antagonists on the extent of myocyte injury were determined by exposure of the prepared cells to these agents during the prolonged hypoxia.\n(§1) Determination of myocyte injury was made at the end of the ninety-minute hypoxia, at which time myocytes were taken out of the hypoxic incubator and re-exposed to room air (normal % O2). Aliquots of the media were then obtained for creatine kinase (CK) activity measurement, which is followed by quantitation of the number of viable cells. Measurement of basal level of cell injury was made after parallel incubation of control cells under normal % O2. The extent of hypoxia-induced injury to the ventricular cell was quantitatively determined by the percentages of cells killed and by the amount of CK released into the media according to a previously described method (16, 23). […] In brief, the media were replaced with a trypsin-EDTA buffer to detach the cells, which was then followed by sedimentation of the viable myocytes. Parallel changes in % cells killed and CK released (16, 23) further validated this assay for % cells killed. The amount of CK was measured as enzyme activity (unit/mg), and increases in CK activity above the control level were determined. The percentage of cells killed was calculated as the number of cells obtained from the control group (representing cells not subjected to any hypoxia or drug treatment) minus the number of cells from the treatment group divided by number of cells in control group multiplied by 100%."}, "[2]": {"system": "ventricular myocytes cultured from chick embryos", "assay": "Pharmacological preconditioning: 5 min exposure to agent, then 90 min simulated ischemia", "format": "cell-based", "conditions": "for preconditioning / cardioprotective effect: agent alone, 5 min exposure before 90 min ischemia", "experimental": "FIG. 14 is a graph showing that the partial A1 receptor agonist, 8-butylaminoCPA, mimics the cardioprotective effect of ischemic preconditioning. Ventricular myocytes were cultured from chick embryos 14 days in ovo. The ability of the partial A1 agonist, 8-butylaminoCPA (8-butylamino-N^6-cyclopentyladenosine), to induce preconditioning was determined. In brief, myocytes were exposed to 8-butylaminoCPA at the indicated concentrations for 5 min, incubated for 10 min with agonist-free medium, and then exposed to simulated ischemia for 90 min. The extent of myocyte injury was quantitated at the end of the 90 min period by determinating the percentage of cells killed and the amount of creatine kinase (CK) released (units per milligram of cell protein). Data are means±SE of values from five independent experiments.\nas §1\nMedia were then replaced with fresh media, which was then followed by exposure to 90-minute simulated ischemia and the data graphed."}, "[3]": {"system": "cardiac ventricular myocytes cultured from chick embryos", "assay": "Hypoxia-induced myocyte injury, agent present during prolonged (90 min) hypoxia with glucose deprivation", "format": "cell-based", "conditions": "agonist added upon reoxygenation after 90 minute hypoxia, kept one additional hour; hypoxia alone 26.5±1.0"}, "[4]": {"system": "isolated cardiac myocytes", "assay": "Apoptotic cell death by DNA laddering on 1.5% agarose gel", "format": "cell-based", "experimental": "Such smearing is indicative of a culmination of the apoptotic cell death pathway. Isolated cardiac myocytes were exposed to 90-min ischemia and 30-min reoxygenation (lanes 4 and 5). […] Lanes 1 and 2 represent myocytes not exposed to ischemia or any agent. Data were representative of three experiments.\nIsolated cardiac myocytes were exposed to prolonged moderate simulated ischemia (17 hours with 2-3% O2). Lane 3 represents myocytes not exposed to ischemia or any agent. Lane 5 represents myocytes exposed to 17 hours of ischemia. […] Data were representative of three experiments.\nLane 3 represents myocytes not exposed to any agent. Lane 5 represents cardiac myocytes exposed (for three hours) to an agent (a P2X receptor agonist, 2-methylthioATP) known to increase intracellular calcium concentration. Prolonged exposure to 2-methylthioATP or UTP caused increased apoptosis (Lane 7). […] Data were representative of two experiments.\nThe effects of agents which target the adenosine receptor on apoptosis were initially examined in isolated cardiac myocytes exposed to ischemia (for 90 minutes and 30 minutes of reoxygenation) or agents which increase intracellular calcium levels. Increasing the level of intracellular calcium concentration induces non-ischemia-related apoptosis in vitro. Apoptotic cell death of cardiac myocytes was assessed by determining the extent of smearing or “DNA laddering” on 1.5% agarose gels."}, "[5]": {"target": "T2, human adenosine A3 receptor (Homo sapiens, UniProt P0DMS8)", "T2 construct": "full length cDNA encoding human adenosine A3 receptor subcloned in pcDNA3; expressed in transfected cells; host or cells: chick embryo atrial myocytes, transient calcium phosphate transfection with pcDNA3/hA3R", "T2 sequence (P0DMS8 1-318)": "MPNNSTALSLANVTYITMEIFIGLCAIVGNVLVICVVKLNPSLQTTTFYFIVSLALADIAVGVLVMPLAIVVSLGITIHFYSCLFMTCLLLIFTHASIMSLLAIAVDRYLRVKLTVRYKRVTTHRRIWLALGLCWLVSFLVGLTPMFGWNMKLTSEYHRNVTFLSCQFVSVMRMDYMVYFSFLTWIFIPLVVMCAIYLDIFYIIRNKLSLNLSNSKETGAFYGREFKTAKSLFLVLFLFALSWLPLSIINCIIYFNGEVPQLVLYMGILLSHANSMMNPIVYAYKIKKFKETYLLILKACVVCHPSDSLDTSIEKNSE", "assay": "Preconditioning in chick atrial myocytes transfected with the human A3 receptor", "format": "cell-based", "conditions": "hA3R-transfected vs vector-transfected atrial myocytes", "experimental": "Transfection of chick atrial myocytes with the human A3 receptor—Atrial cells were cultured from chick embryos 14 days in ovo and transiently transfected with pcDNA3 (empty vector) or with pcDNA3/hA3R (full length cDNA encoding human adenosine A3 receptor subcloned in pcDNA3) using the calcium phosphate precipitation method. Forty-eight hours after transfection, the cells were exposed to the compounds of the invention and the percentage of myocytes killed during simulated ischemia was determined.\nThe transfected myocytes were then exposed to the compound for 5 minutes, which was followed by replacement with fresh media and myocytes exposed to normal conditions (non-ischemic) for 10 minutes prior to being exposed to ninety minutes of ischemia. The decrease in the number of myocytes killed in A3 receptor cDNA-transfected myocytes as compared to vector-transfected myocytes was plotted as a function of the concentration of the compound. This decrease in myocytes killed represented an index of the protection mediated via the human adenosine A3 receptor."}}, "note": "Read-outs that look alike come from different tables or passages of the source.", "data": [{"smiles": "CCNC(=O)C1OC(n2cnc3c(NC4CCCCC4)ncnc32)C(O)C1O", "note": "(stereo not shown) [N^6-cyclohexyl NECA, N6-cyclohexyl 5′-N-ethylcarboxamidoadenosine]", "values": [{"measurement": "Ki", "setting": "A3 receptor; Table II", "value": 16, "unit": "nM"}]}, {"smiles": "CCNC(=O)C1OC(n2cnc3c(NC(=O)Nc4ccccc4C(F)(F)F)ncnc32)C(O)C1O", "note": "(stereo not shown) [Compound 4d, N^6-((2-trifluoromethyl)carbamoyl)adenosine-5′-uronamide]", "values": [{"measurement": "Ki", "setting": "A1 receptor", "value": 384, "unit": "nM"}, {"measurement": "Ki", "setting": "A2a receptor", "value": "> 10000", "unit": "nM"}, {"measurement": "Ki", "setting": "A3 receptor; Table II", "value": 54, "unit": "nM"}]}, {"smiles": "NCCNC(=O)Cc1ccc(NC(=O)Cc2ccc(Nc3ncnc4c3ncn4[C@@H]3O[C@H](CO)[C@@H](O)[C@H]3O)cc2)cc1", "note": "[ADAC, N^6-[4-[[[4-[[[(2-aminoethyl)amino]carbonyl]methyl]anilino]carbonyl]methyl]phenyl]adenosine]", "values": [{"measurement": "cardioprotective effect when present during prolonged hypoxia (CK released, % myocytes killed)", "setting": "[1]", "value": "able to protect the myocytes when present during the prolonged hypoxia"}, {"measurement": "Ki", "setting": "A3 receptor; Compound 8 table", "value": 4, "unit": "nM"}]}, {"smiles": "OC[C@H]1O[C@@H](n2cnc3c(NC4CCCC4)nc(Cl)nc32)[C@H](O)[C@@H]1O", "note": "[CCPA, 2-chloro-N^6-cyclopentyladenosine]", "values": [{"measurement": "cardioprotective effect when present during prolonged hypoxia (CK released, % myocytes killed)", "setting": "[1]", "value": "caused a dose-dependent reduction in the percentage of myocytes killed"}, {"measurement": "preconditioning / cardioprotective effect", "setting": "[2]", "value": "causes a pronounced cardioprotective effect in the cardiac myocyte"}, {"measurement": "% myocytes killed", "setting": "[3]", "value": "22.1±1.5", "unit": "%"}]}, {"smiles": "CNC(=O)C1OC(n2cnc3c(NOc4ccccc4)ncnc32)C(O)C1O", "note": "(stereo not drawn) [Compound 11, 6-(O-Phenylhydroxylamino)purine-9-beta-ribofuranoside-5′-N-methyluronamide]", "values": [{"measurement": "Ki", "setting": "A1 receptor", "value": 2060, "unit": "nM"}, {"measurement": "Ki", "setting": "A2a receptor", "value": 66300, "unit": "nM"}, {"measurement": "Ki", "setting": "A3 receptor; Table II", "value": 1340, "unit": "nM"}]}, {"smiles": "CNC(=O)[C@H]1O[C@@H](n2cnc3c(NCc4cccc(I)c4)nc(Cl)nc32)[C@H](O)[C@@H]1O", "note": "[Cl-IB-MECA, 2-chloro-N^6-(3-iodobenzyl)adenosine-5′-N-methyluronamide]", "values": [{"measurement": "cardioprotective effect when present during prolonged hypoxia (CK released, % myocytes killed)", "setting": "[1]", "value": "capable of protecting the cardiac myocytes against hypoxia-induced injury"}, {"measurement": "preconditioning / cardioprotective effect", "setting": "[2]", "value": "caused a potent cardioprotective effect"}, {"measurement": "apoptotic cell death (DNA laddering)", "setting": "[4]; 90 min ischemia and 30 min reoxygenation, 10 nM Cl-IB-MECA, 1 μM MRS1191", "value": "reduced apoptotic cell death of cardiac myocytes"}, {"measurement": "apoptotic cell death in the presence of 2-methylthioATP", "setting": "[4]; co-incubation, no ischemia", "value": "resulted in a decrease in apoptotic cell death"}, {"measurement": "apoptosis (DNA laddering)", "setting": "[4]; prolonged moderate ischemia, 17 hours with 2-3% O2", "value": "reduced apoptosis"}, {"measurement": "% myocytes killed", "setting": "[3]", "value": "23.0±1.4", "unit": "%"}]}, {"smiles": "CNC(=O)C1OC(n2cnc3c(NCc4cccc(C#CCNC(=O)CCC(=O)Nc5cccc(/C=C/c6nc7c(c(=O)n(C)c(=O)n7C)n6C)c5)c4)ncnc32)C(O)C1O", "note": "(stereo not shown) [MRS 1528]", "values": [{"measurement": "preconditioning effect in presence of A2a agonist CGS21680", "setting": "[2]; CGS21680 (0.3 μM)", "value": "protective effect of low concentrations of MRS1528 is attenuated by the A2a agonist CGS21680 whereas the protective effect of high concentrations of MRS1528 is not affected"}, {"measurement": "preconditioning effect in presence of A2a antagonist CSC", "setting": "[2]; CSC (1 μM)", "value": "unaffected by the A2a receptor antagonist CSC"}, {"measurement": "preconditioning / cardioprotective effect", "setting": "[2]", "value": "can activate A3 receptor to induce preconditioning and can simultaneously block the A2a receptor to enhance its preconditioning effect"}, {"measurement": "preconditioning / protection mediated via human adenosine A3 receptor", "setting": "[5]", "value": "can cause preconditioning of the cardiac myocytes via human adenosine A3 receptor"}]}]}
